Results published in article PMC4229968, “The Inhibition of the Components from Shengmai Injection towards UDP-Glucuronosyltransferase” (Evidence-based Complementary and Alternative Medicine : eCAM, 2014).

Experiments:
[1] = target: T1, UGT1A4 (Homo sapiens, UniProt P22310); experiment: Recombinant UGT1A4-catalyzed trifluoperazine (TFP) glucuronidation inhibition; assay type: in vitro ADME; conditions: for activity at 20 min, 100 μM: UGT1A4, 100 μM of compound, TFP substrate (40 μM), read-out: residual activity
T1 construct: purchased BD Gentest Corp. (Woburn, MA, USA); host or cells: baculovirus-infected insect cells
T1 sequence (P22310 29-534): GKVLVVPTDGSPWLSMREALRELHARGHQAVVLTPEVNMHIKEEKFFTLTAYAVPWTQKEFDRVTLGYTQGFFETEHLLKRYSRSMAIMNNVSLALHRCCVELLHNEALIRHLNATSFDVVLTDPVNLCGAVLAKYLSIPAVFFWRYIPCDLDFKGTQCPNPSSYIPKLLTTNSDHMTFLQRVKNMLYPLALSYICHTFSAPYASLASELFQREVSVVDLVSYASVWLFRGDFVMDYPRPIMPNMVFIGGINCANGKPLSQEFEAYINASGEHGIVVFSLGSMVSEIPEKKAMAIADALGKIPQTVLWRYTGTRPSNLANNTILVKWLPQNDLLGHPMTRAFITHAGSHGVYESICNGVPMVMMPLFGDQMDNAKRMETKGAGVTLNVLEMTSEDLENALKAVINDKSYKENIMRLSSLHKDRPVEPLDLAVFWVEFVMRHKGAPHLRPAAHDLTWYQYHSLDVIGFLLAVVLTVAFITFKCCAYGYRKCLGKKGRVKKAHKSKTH
Description: (§1) 4-Methylumbelliferone (4-MU), 4-methylumbelliferone-β-D-glucuronide (4-MUG), Tris-HCl, 7-hydroxycoumarin, and uridine-5′-diphosphoglucuronic acid (UDPGA) (trisodium salt) were purchased from Sigma-Aldrich (St. Louis, MO). Recombinant human UGT isoforms (UGT1A1, UGT1A3, UGT1A4, UGT1A6, UGT1A7, UGT1A8, UGT1A9, UGT1A10, UGT2B4, UGT2B7, and UGT2B15) expressed in baculovirus-infected insect cells were obtained from BD Gentest Corp. (Woburn, MA, USA). Ophiopogonin D (OD), ophiopogonin D′ (OD′), methylophiopogonanone A (MA), methylophiopogonanone B (MB), and ruscorectal (RU) were purchased from Sichuan Weikeqi Biotechnology Company (Chengdu, Sichuan, China). The purity of these compounds was above 95%. All other reagents were of HPLC grade or of the highest grade commercially available.
Therefore, UGT1A4-catalyzed trifluoperazine (TFP) glucuronidation was carried out to evaluate inhibition of maidong's components towards UGT1A4 activity. As previously reported, TFP (40 μM, near its K m value) was incubated with 0.1 mg/mL recombinant UGT1A4 for 20 min in the presence or absence of maidong's ingredients.
To determine the inhibition kinetic type and parameters (K i), the reaction velocity (V) was determined at multiple concentrations of maidong's components and 4-MU (or TFP). Dixon plot and Lineweaver-Burk plot were used to fit the data. The inhibition kinetic type was evaluated through determining the intersection point in the Dixon and Lineweaver-Burk plots.
K m value is the substrate concentration in which the velocity reached half of the maximum velocity (V max) of the reaction. K i value is the inhibition constant.

[2] = target: T2, UGT2B15 (Homo sapiens, UniProt P54855); experiment: Recombinant UGT2B15-catalyzed 4-MU glucuronidation inhibition; assay type: in vitro ADME; conditions: pH 7.4, probe 4-methylumbelliferone (4-MU), UGT2B15, 100 μM of compound, 4-MU substrate, read-out: residual activity
T2 construct: purchased BD Gentest Corp. (Woburn, MA, USA); host or cells: baculovirus-infected insect cells
T2 sequence (P54855 24-530): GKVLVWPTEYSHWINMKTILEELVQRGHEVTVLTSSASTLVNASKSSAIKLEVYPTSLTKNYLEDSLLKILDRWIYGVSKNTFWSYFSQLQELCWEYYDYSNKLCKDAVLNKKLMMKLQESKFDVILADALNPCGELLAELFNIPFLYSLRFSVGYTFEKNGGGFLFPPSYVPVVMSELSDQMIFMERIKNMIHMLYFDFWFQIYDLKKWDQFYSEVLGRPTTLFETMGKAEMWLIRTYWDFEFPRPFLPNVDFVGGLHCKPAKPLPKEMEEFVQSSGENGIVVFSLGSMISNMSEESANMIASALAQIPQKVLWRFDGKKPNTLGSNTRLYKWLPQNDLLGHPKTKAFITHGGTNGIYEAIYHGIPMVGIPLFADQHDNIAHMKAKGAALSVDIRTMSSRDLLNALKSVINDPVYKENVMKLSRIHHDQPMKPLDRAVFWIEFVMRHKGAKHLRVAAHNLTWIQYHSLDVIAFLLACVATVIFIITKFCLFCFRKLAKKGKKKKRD
Description: as §1
4-MU, the nonspecific probe substrate for all the UGT isoforms except UGT1A4, was used in the present study to initially screen the inhibition potential of maidong's components towards UGT isoforms as previously reported. In brief, the incubation system (total volume = 200 μL) consisted of recombinant UGTs, 5 mM UDPGA, 5 mM MgCl2, 50 mM Tris-HCl (pH = 7.4), and 4-MU in the absence or presence of different concentrations of maidong's components. The compounds were dissolved in DMSO, and the final concentration of DMSO was below 0.5% (v/v). The used incubation time and protein concentration were previously determined to ensure the reaction rate within the linear range. The 4-MU concentration was equal to known K m or S 50 values for each UGT isoform. After 5 min preincubation at 37°C, the incubation reaction was initiated via adding UDPGA to the mixture system. The reactions were quenched by adding 100 μL acetonitrile with 7-hydroxycoumarin (100 μM) as internal standard. Centrifuged at 20000 ×g for 10 min, an aliquot of supernatant was transferred to an autoinjector vial for HPLC analysis. The HPLC system (Shimadzu, Kyoto, Japan) contained a SCL-10A system controller, two LC-10AT pumps, a SIL-10A autoinjector, and a SPD-10AVP UV detector. Chromatographic separation was carried out using a C18 column (4.6 × 200 mm, 5 μm, Kromasil) at a flow rate of 1 mL/min and UV detector at 316 nm. The mobile phase consisted of acetonitrile (A) and H2O containing 0.5% (v/v) formic acid (B). The following gradient condition was used: 0–15 min, 95–40% B; 15–20 min, 10% B; 20–30 min, 95% B.

[3] = human, probe trifluoperazine (TFP)

Compound	activity at 20 min, 100 μM [1, 3] [%]	activity at 100 µM [2] [%]	inhibition type ([1]; UGT1A4, TFP glucuronidation, Dixon and Lineweaver-Burk plots)	Ki ([1]; UGT1A4-catalyzed TFP glucuronidation, read-out: inhibition kinetic parameter (Ki)) [nM]	inhibition at 20 min, 100 µM ([1]; human, probe trifluoperazine (TFP), 40 μM, UGT1A4, at 100 μM, read-out: inhibition percent) [%]
Cc1c(O)c(C)c2c(c1O)C(=O)[C@H](Cc1ccc3c(c1)OCO3)CO2 [MA, methylophiopogonanone A]	70.4 ± 3.8	23.8 ± 2.8			
COc1ccc(C[C@@H]2COc3c(C)c(O)c(C)c(O)c3C2=O)cc1 [MB, methylophiopogonanone B]	81.1 ± 8	56.1 ± 9.8			
C[C@@H]1CC[C@@]2(OC1)O[C@H]1C[C@H]3[C@@H]4CC=C5C[C@@H](O)C[C@@H](O[C@@H]6O[C@H](C)[C@H](O)[C@H](O[C@@H]7OC[C@@H](O)[C@H](O)[C@H]7O)[C@H]6O[C@@H]6O[C@@H](C)[C@H](O)[C@@H](O)[C@H]6O)[C@]5(C)[C@H]4CC[C@]3(C)[C@H]1[C@@H]2C [OD, ophiopogonin D]	24.6 ± 1.6	36.9			
C[C@@H]1CC[C@@]2(OC1)O[C@H]1C[C@H]3[C@@H]4CC=C5C[C@@H](O[C@@H]6O[C@H](CO)[C@@H](O)[C@H](O[C@@H]7OC[C@@H](O)[C@H](O)[C@H]7O)[C@H]6O[C@@H]6O[C@@H](C)[C@H](O)[C@@H](O)[C@H]6O)CC[C@]5(C)[C@H]4CC[C@]3(C)[C@H]1[C@@H]2C [OD′, ophiopogonin D′]	21 ± 1.6	35.5 ± 1.7			
CC1CCC2(OC1)OC1CC3C4CC=C5CC(O)CC(O)C5(C)C4CCC3(C)C1C2C (stereo not shown) [RU, ruscorectal]	0	55.5 ± 19.6	competitive inhibition	20	~100
